Assays:
Assay type in all cases: in vivo, chicken chicks
Eimeria acervulina = assay: Cage experiments coccidiosis/chicks, Eimeria acervulina part of the mixed infection; details: for Efficacy against Eimeria acervulina (grade): first symbol of cell; on Efficacy against Eimeria acervulina (grade): key: 2 = complete action; 1 = weak action; 0 = inactive; D = death
Procedure: (§1) The efficacy of the compounds according to the invention can be confirmed, for example, in cage experiments using the following experimental arrangement, in which the animals are treated with the respective individual components and with the mixtures of the individual components.
(§2) An active compound-containing feed is prepared in such a way that the required amount of active compound is thoroughly mixed with a nutritionally balanced animal feed, e.g. with the chick feed indicated below.
(§3) 8 to 12 day-old male chicken chicks raised under coccidea-free conditions (e.g. LSL Brinkschulte/Senden) receive the compounds according to the invention (test substances) from 3 days before (day -3) the infection (=a.i.) until 8 (9) days after the infection (=p.i.) with the feed in the concentration indicated in ppm. Three animals are kept in each cage. Per dose, one to a number of groups of this type are employed. Infection is carried out by means of a stomach tube directly into the crop using approximately 100,000 sporulated oocysts of Eimeria acervulina and with in each case approximately 30,000 oocysts of E. maxima and 40,000 sporulated oocysts of E. tenella. These are highly virulent strains. The exact infectious dose is adjusted such that if possible one of three experimentally infected untreated chicks dies due to infection. For the assessment of the efficacy, the following criteria are taken into consideration: weight increase from the start of the experiment to the end of the experiment, death rate due to infection, macroscopic assessment of the faeces with respect to diarrhoea and excretion of blood on days 5 and 7 p.i. (grade 0 to 6), macroscopic grade of the intestinal mucous membrane, in particular of the cecums (grade 0 to 6) and the oocyst excretion and also the proportion (in %) of the oocysts sporulating within 24 hours. The number of oocysts in the faeces was determined with the aid of the McMaster counting chamber (see Engelbrecht and coworkers “Parasitologische Arbeitsmethoden in Medizin und Veterinärmedizin, [Parasitological working methods in medicine and veterinary medicine] Akademie-Verlag, Berlin (1965)). The individual findings are related to the untreated noninfected control groups and an overall grade is calculated (cf. A. Haberkorn (1986), pp. 263 to 270 in Research in Avian Coccidiosis ed L. R. McDougald, L. P. Joyner, P. L. Long Proceedings of the Georgia Coccidiosis Conference Nov, 18-20, 1985 Athens/Ga. USA).
(§4) In the columns “dropping scores”, “lesion score” and “oocyst control”, individual details of the action are given.

Eimeria tenella = assay: Cage experiments coccidiosis/chicks, Eimeria tenella part of the mixed infection; details: for Efficacy against Eimeria tenella (grade): third symbol of cell; on Efficacy against Eimeria tenella (grade): key: 2 = complete action; 1 = weak action; 0 = inactive; D = death
Procedure: as §1, §2, §3, §4

Eimeria maxima = assay: Cage experiments coccidiosis/chicks, Eimeria maxima part of the mixed infection; details: for Efficacy against Eimeria maxima (grade): second symbol of cell; on Efficacy against Eimeria maxima (grade): key: 2 = complete action; 1 = weak action; 0 = inactive; D = death
Procedure: as §1, §2, §3, §4

[1] = system: Eimeria acervulina, Eimeria maxima and Eimeria tenella; assay: Cage experiments coccidiosis/chicks, mixed experimental infection; details: for dropping scores / lesion score: grade 0 to 6
Procedure: as §1, §2, §3
In the column “ppm”, the concentration of the active compound employed in the feed is indicated in ppm.
In the column “mortality”, the percentage of the animals which have died is indicated under % and the number of the animals which have died/animals employed in the experiment is indicated under n.
In the column “weight % of not inf. control”, the ratio of the weight of the treated animals to the weight of the noninfected control group is indicated.
as §4
In the column “% efficacy”, the overall rating is assessed; 0% means no action, 100% means complete action.

Structure (SMILES) | oocyst in % of inf. control ac. (Eimeria acervulina; 5 ppm in feed) [%] | oocyst in % of inf. control ac. (Eimeria acervulina; 10 ppm in feed) [%] | Efficacy against Eimeria acervulina (grade) (Eimeria acervulina; Dose 5 ppm) | Efficacy against Eimeria acervulina (grade) (Eimeria acervulina; Dose 10 ppm) | oocyst in % of inf. control ten. (Eimeria tenella; 5 ppm in feed) [%] | oocyst in % of inf. control ten. (Eimeria tenella; 10 ppm in feed) [%] | Efficacy against Eimeria tenella (grade) (Eimeria tenella; Dose 5 ppm) | Efficacy against Eimeria tenella (grade) (Eimeria tenella; Dose 10 ppm) | oocyst in % of inf. control max. (Eimeria maxima; 5 ppm in feed) [%] | oocyst in % of inf. control max. (Eimeria maxima; 10 ppm in feed) [%] | Efficacy against Eimeria maxima (grade) (Eimeria maxima; Dose 5 ppm) | Efficacy against Eimeria maxima (grade) (Eimeria maxima; Dose 10 ppm) | % efficacy tot. ([1]; 5 ppm in feed) [%] | mortality % ([1]; 5 ppm in feed) [%] | mortality n (died/employed) ([1]; 5 ppm in feed) | oocyst in % of inf. control tot. ([1]; 5 ppm in feed) [%] | weight % of not inf. control ([1]; 5 ppm in feed) [%] | dropping scores ([1]; 5 ppm in feed) | lesion score ([1]; 5 ppm in feed) | % efficacy tot. ([1]; 10 ppm in feed) [%] | further results
Cc1oc(=O)oc1Cn1c(C(F)(F)F)nc2cc(Cl)c(C(F)(F)F)cc21 [Example 18] | >100 | >100 | 0 | 0 | >100 | >100 | 0 | 0 | >100 | 0 | 0 | 0 | 7 | 0 | 0/3 | >100 | 33 | 6 | 6 | 5 | oocyst in % of inf. control ac. (Eimeria acervulina; 25 ppm in feed): 0%; Efficacy against Eimeria acervulina (grade) (Eimeria acervulina; Dose 25 ppm): 2; oocyst in % of inf. control ten. (Eimeria tenella; 25 ppm in feed): 1%; Efficacy against Eimeria tenella (grade) (Eimeria tenella; Dose 25 ppm): 2; oocyst in % of inf. control max. (Eimeria maxima; 25 ppm in feed): 20%; Efficacy against Eimeria maxima (grade) (Eimeria maxima; Dose 25 ppm): 1; mortality % ([1]; 10 ppm in feed): 0%; mortality n (died/employed) ([1]; 10 ppm in feed): 0/3; oocyst in % of inf. control tot. ([1]; 10 ppm in feed): >100%; weight % of not inf. control ([1]; 10 ppm in feed): 30%; dropping scores ([1]; 10 ppm in feed): 6; lesion score ([1]; 10 ppm in feed): 6; % efficacy tot. ([1]; 25 ppm in feed): 75%; mortality % ([1]; 25 ppm in feed): 0%; mortality n (died/employed) ([1]; 25 ppm in feed): 0/3; oocyst in % of inf. control tot. ([1]; 25 ppm in feed): 1%; weight % of not inf. control ([1]; 25 ppm in feed): 82%; dropping scores ([1]; 25 ppm in feed): 1; lesion score ([1]; 25 ppm in feed): 3
Cc1oc(=O)oc1Cn1c(C(F)(F)F)nc2cc(C(F)(F)F)c(Cl)cc21 [Example 19] | >100 | 5 | 0 | 2 | >100 | 5 | 0 | 1 | >100 | 13 | 0 | 1 | 7 | 0 | 0/3 | >100 | 52 | 4 | 6 | 66 | oocyst in % of inf. control ac. (Eimeria acervulina; 25 ppm in feed): >100%; Efficacy against Eimeria acervulina (grade) (Eimeria acervulina; Dose 25 ppm): 0; oocyst in % of inf. control ten. (Eimeria tenella; 25 ppm in feed): >100%; Efficacy against Eimeria tenella (grade) (Eimeria tenella; Dose 25 ppm): 0; oocyst in % of inf. control max. (Eimeria maxima; 25 ppm in feed): >100%; Efficacy against Eimeria maxima (grade) (Eimeria maxima; Dose 25 ppm): 0; mortality % ([1]; 10 ppm in feed): 0%; mortality n (died/employed) ([1]; 10 ppm in feed): 0/3; oocyst in % of inf. control tot. ([1]; 10 ppm in feed): 5%; weight % of not inf. control ([1]; 10 ppm in feed): 75%; dropping scores ([1]; 10 ppm in feed): 3; lesion score ([1]; 10 ppm in feed): 4; % efficacy tot. ([1]; 25 ppm in feed): 7%; mortality % ([1]; 25 ppm in feed): 0%; mortality n (died/employed) ([1]; 25 ppm in feed): 0/3; oocyst in % of inf. control tot. ([1]; 25 ppm in feed): >100%; weight % of not inf. control ([1]; 25 ppm in feed): 56%; dropping scores ([1]; 25 ppm in feed): 6; lesion score ([1]; 25 ppm in feed): 6
Cc1oc(=O)oc1Cn1c(C(F)(F)F)nc2c(C(F)(F)F)cc(C(F)(F)F)cc21 [Example 28] | 2 | 0 | 2 | 2 | 0 | 0 | 2 | 2 | 2 | 0 | 2 | 2 | 75 | 0 | 0/3 | 1 | 85 | 6 | 1 | 91 | mortality % ([1]; 10 ppm in feed): 0%; mortality n (died/employed) ([1]; 10 ppm in feed): 0/3; oocyst in % of inf. control tot. ([1]; 10 ppm in feed): 0%; weight % of not inf. control ([1]; 10 ppm in feed): 82%; dropping scores ([1]; 10 ppm in feed): 0; lesion score ([1]; 10 ppm in feed): 0; mortality % ([1]; 25 ppm in feed): 100%; mortality n (died/employed) ([1]; 25 ppm in feed): 3/3; dropping scores ([1]; 25 ppm in feed): 0
